IC50 data for 14 compounds are collected here from patent US5397781A, “Pyrimidine derivatives” (Mochida Pharmaceutical Company, Limited, priority 1992, dated 1995).

The target in this test is T1, ACAT (Rattus norvegicus, UniProt Q7TQM4).
T1 construct: Liver microsomes as an enzyme sample of ACAT were prepared from overnight-fasted male rats; from tissue; host or cells: liver of overnight-fasted male rats, 6 weeks old; microsomes
T1 sequence (Q7TQM4 1-524): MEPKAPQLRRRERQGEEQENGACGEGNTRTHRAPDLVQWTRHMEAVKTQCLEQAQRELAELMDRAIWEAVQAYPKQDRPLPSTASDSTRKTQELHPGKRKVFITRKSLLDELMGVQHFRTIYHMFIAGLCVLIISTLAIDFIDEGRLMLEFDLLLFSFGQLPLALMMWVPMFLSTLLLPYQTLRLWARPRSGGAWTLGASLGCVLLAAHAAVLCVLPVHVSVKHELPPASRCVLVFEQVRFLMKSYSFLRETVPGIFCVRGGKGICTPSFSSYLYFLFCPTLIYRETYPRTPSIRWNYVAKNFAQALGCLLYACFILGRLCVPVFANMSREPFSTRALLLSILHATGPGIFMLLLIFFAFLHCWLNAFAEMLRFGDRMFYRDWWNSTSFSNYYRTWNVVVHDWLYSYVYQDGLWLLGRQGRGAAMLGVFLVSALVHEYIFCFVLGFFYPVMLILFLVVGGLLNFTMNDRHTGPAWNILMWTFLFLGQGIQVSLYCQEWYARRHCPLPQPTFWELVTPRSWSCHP
The test is described as follows: Inhibitory effect on microsomal ACAT activity in rat liver. It counts as biochemical. Conditions: rat liver microsomes; read-out: IC50 (50% inhibition of cholesterol esterification). A general note: Liver microsomes are a subcellular fraction often used to study metabolism.
For orientation: IC50 means the concentration that inhibits the measured activity by half. Regarding `CCCN(CCCCC(=O)Nc1c(S)nc(C)nc1N(CC)CC)c1ccccc1` [Example 187, N-[4-(N,N-diethylamino)-6-mercapto-2-methylpyrimidin-5-yl]-5-(N-phenyl-N-propylamino)pentanamide], the IC50 is 47 nM. As for `CCCCN(CCCC)c1nc(C)nc(OC)c1NC(=O)CCCCN(CCC)c1ccccc1` [Example 195, N-[4-(N,N-dibutylamino)-6-methoxy-2-methylpyrimidin-5-yl]-5-(N-phenyl-N-propylamino)pentanamide], the figure is 47 nM. For `CCCCCCN(CCCC(=O)Nc1c(SC)nc(C)nc1N(CCCC)CCCC)c1ccccc1` [Example 227, N-[4-(N,N-dibutylamino)-2-methyl-6-methylthiopyrimidin-5-yl]-4-(N-hexyl-N-phenylamino)butanamide], the IC50 amounted to 110 nM. As to `CCCCc1ccc(N(CCC)CCCC(=O)Nc2c(SC)nc(C)nc2N(CC)CC)cc1` [Example 237, 4-[N-(4-butylphenyl)-N-propylamino]-N-[4-(N,N-diethylamino)-2-methyl-6-methylthiopyrimidin-5-yl]butanamide], the IC50 is 83 nM. In the case of `CCCCCCN(CCCC(=O)Nc1c(OC)nc(C)nc1N(CCC)CCC)c1ccccc1` [Example 167, N-[4-(N,N-dipropylamino)-6-methoxy-2-methylpyrimidin-5-yl]-4-(N-hexyl-N-phenylamino)butanamide], the IC50 was 43 nM. As for `CCCN(CC(=O)Nc1c(S)nc(C)nc1N(CC)CC)c1ccccc1` [Example 133, N-[4-(N,N-diethylamino)-6-mercapto-2-methylpyrimidin-5-yl]-2-(N-phenyl-N-propylamino)acetamide], the IC50 was found to be 260 nM.

`CCCN(CCCCC(=O)Nc1c(S)nc(C)nc1N(CCC)CCC)c1ccccc1` [Example 188, N-[4-(N,N-dipropylamino)-6-mercapto-2-methylpyrimidin-5-yl]-5-(N-phenyl-N-propylamino)pentanamide]: the IC50 was 35 nM. With `CCCN(CCCC(=O)Nc1c(S)nc(C)nc1N(CC)CC)c1ccc(OC)cc1` [Example 173, N-[4-(N,N-diethylamino)-6-mercapto-2-methylpyrimidin-5-yl]-4-[N-(4-methoxyphenyl)-N-propylamino]butanamide], the IC50 is 170 nM.

With `CCCCCCN(CCCC(=O)Nc1c(SCCC)nc(C)nc1N(CC)CC)c1ccccc1` [Example 261, N-[4-(N,N-dietylamino)-2-methyl-6-propylthiopyrimidin-5-yl]-4-(N-hexyl-N-phenylamino)butanamide], the IC50 was determined as 23 nM. The result for `CCCCCCSc1nc(C)nc(N(CCC)c2ccccc2)c1NC(=O)CCCN(CCC)c1ccccc1` [Example 257, N-[4-hexylthio-2-methyl-6-(N-phenyl-N-propylamino)pyrimidin-5-yl]-4-(N-phenyl-N-propylamino)butanamide] reads 220 nM; that for `CCN(CC)c1nc(C)nc(S)c1NC(=O)CCCN1CCCc2ccccc21` [Example 183, N-[4-(N,N-diethylamino)-6-mercapto-2-methylpyrimidin-5-yl]-4-(tetrahydroquinolino)butanamide], 280 nM; that for `CCCN(CC(=O)Nc1c(SC)nc(C)nc1N(CC)CC)Cc1ccccc1` [Example 210, 2-(N-benzyl-N-propylamino) N-[4-(N,N-diethylamino)-2-methyl-6-methylthiopyrimidin-5-yl]acetamide], 470 nM. Consider `CCN(CC)c1nc(C)nc(SC)c1NC(=O)CCCN1CCCc2ccccc21` [Example 244, N-[4-(N,N-diethylamino)-2-methyl-6-methylthiopyrimidin-5-yl]-4-(N-tetrahydroquinolino)butanamide], for which the 50% inhibitory concentration (IC50) turned out to be 190 nM. The result for `CCCN(CCCC(=O)Nc1c(SC)nc(C)nc1N(CC)CC)Cc1ccccc1` [Example 242, 4-(N-benzyl-N-propylamino)-N-[4-(N,N-diethylamino)-2-methyl-6-methylthiopyrimidin-5-yl]butanamide] reads 220 nM.
